Measured values from PubChem BioAssay (NCI).
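In this assay, cells in 96-well plates receive the compound at five concentrations for 48 hours. Endpoints are linearly interpolated between the surrounding concentrations. Here, GI50 denotes the concentration required for 50% inhibition of growth. The concentration for full growth arrest is given as TGI.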

Columns and labels:
Experiment in all cases: NCI anticancer screen, dose series, 48 h
[1] = tested on: SF-268 CNS
[2] = tested on: KM12 colon
[3] = tested on: UO-31 renal
[4] = tested on: RPMI-8226 leukemia
[5] = tested on: CAKI-1 renal
[6] = tested on: T-47D breast
[7] = tested on: MDA-MB-231 breast
[8] = tested on: BT-549 breast
[9] = tested on: HS 578T breast
[10] = tested on: SF-539 CNS
[11] = tested on: U251 CNS
[12] = tested on: DU-145 prostate
[13] = tested on: NCI-H226 lung
[14] = tested on: SK-OV-3 ovarian
[15] = tested on: SNB-19 CNS
[16] = tested on: HOP-62 NSCLC
[17] = tested on: HOP-92 NSCLC
[18] = tested on: CCRF-CEM leukemia
[19] = tested on: NCI-H522 lung
[20] = tested on: ACHN renal
[21] = tested on: A498 renal
[22] = tested on: SK-MEL-28 melanoma
[23] = tested on: HL-60(TB) leukemia
[24] = tested on: SK-MEL-5 melanoma
[25] = tested on: NCI-H460 lung
[26] = tested on: IGROV1 ovarian
[27] = tested on: NCI/ADR-RES ovarian
[28] = tested on: HCT-116 colon
[29] = tested on: EKVX NSCLC
[30] = tested on: MALME-3M melanoma
[31] = tested on: SF-295 CNS
[32] = tested on: SN12C renal
[33] = tested on: LOX IMVI melanoma
[34] = tested on: A549 NSCLC
[35] = tested on: OVCAR-8 ovarian
[36] = tested on: TK-10 renal
[37] = tested on: OVCAR-4 ovarian
[38] = tested on: SK-MEL-2 melanoma
[39] = tested on: UACC-257 melanoma
[40] = tested on: M14 melanoma
[41] = tested on: UACC-62 melanoma
[42] = tested on: MCF7 breast
[43] = tested on: HT29 colon
[44] = tested on: NCI-H23 lung
[45] = tested on: RXF 393 renal
[46] = tested on: SW-620 colon
[47] = tested on: OVCAR-5 ovarian
[48] = tested on: SNB-75 CNS
[49] = tested on: 786-0 renal
[50] = tested on: OVCAR-3 ovarian
[51] = tested on: SR leukemia
[52] = tested on: PC-3 prostate
[53] = tested on: MDA-MB-435
[54] = tested on: MOLT-4 leukemia
[55] = tested on: COLO 205 colon
[56] = tested on: K-562 leukemia

## COc1ccccc1S(=O)(=O)Nc1ccc2c3c(cc(CCC(=O)NCCCCNc4cccc5c4C(=O)N(C4CCC(=O)NC4=O)C5=O)cc13)C(=O)N2C (stereo not drawn)
[1]
  GI50: 0.317 µM
  TGI: > 100 µM
[2]
  GI50: 0.697 µM
  TGI: > 100 µM
[3]
  GI50: 2.4 µM
  TGI: > 100 µM
[4]
  GI50: 0.625 µM
  TGI: > 100 µM
[5]
  GI50: 2.31 µM
  TGI: > 100 µM
[6]
  GI50: 0.0343 µM
[7]
  GI50: 0.0351 µM
  TGI: 0.295 µM
[8]
  GI50: 0.0874 µM
  TGI: 1.56 µM
[9]
  GI50: 0.186 µM
  TGI: 1.1 µM
[10]
  GI50: 0.978 µM
  TGI: > 100 µM
[11]
  GI50: > 63.4 µM
  TGI: > 100 µM
[12]
  GI50: 5.68 µM
  TGI: > 100 µM
[13]
  GI50: 0.456 µM
  TGI: 4.79 µM
[14]
  GI50: 1.4 µM
  TGI: > 100 µM
[15]
  GI50: 0.427 µM
  TGI: > 100 µM
[16]
  GI50: 0.416 µM
  TGI: 4.94 µM
[17]
  GI50: 0.0318 µM
  TGI: 0.515 µM
[18]
  GI50: 0.0315 µM
[19]
  GI50: 4.22 µM
  TGI: > 100 µM
[20]
  GI50: > 100 µM
  TGI: > 100 µM
[21]
  GI50: 0.659 µM
  TGI: 6.08 µM
[22]
  GI50: 1.08 µM
  TGI: > 100 µM
[23]
  GI50: 0.0273 µM
[24]
  GI50: 0.982 µM
  TGI: 3.32 µM
[25]
  GI50: > 100 µM
  TGI: > 100 µM
[26]
  GI50: 0.14 µM
  TGI: > 100 µM
[27]
  GI50: > 100 µM
  TGI: > 100 µM
[28]
  GI50: 3.06 µM
  TGI: > 100 µM
[29]
  GI50: 18.1 µM
  TGI: > 100 µM
[30]
  GI50: 0.0915 µM
  TGI: 0.559 µM
[31]
  GI50: 3.75 µM
  TGI: > 100 µM
[32]
  GI50: 0.462 µM
  TGI: > 100 µM
[33]
  GI50: 3.47 µM
  TGI: > 100 µM
[34]
  GI50: 5.73 µM
  TGI: > 100 µM
[35]
  GI50: 0.346 µM
  TGI: > 100 µM
[36]
  GI50: > 29.9 µM
  TGI: > 100 µM
[37]
  GI50: 0.259 µM
  TGI: 1.44 µM
[38]
  GI50: 0.762 µM
  TGI: > 27.4 µM
[39]
  GI50: > 100 µM
  TGI: > 100 µM
[40]
  GI50: 1.11 µM
  TGI: > 100 µM
[41]
  GI50: 13.4 µM
  TGI: > 100 µM
[42]
  GI50: 0.264 µM
  TGI: > 100 µM
[43]
  GI50: 3.84 µM
  TGI: > 100 µM
[44]
  GI50: 17 µM
  TGI: > 100 µM
[45]
  GI50: 0.862 µM
  TGI: 4.5 µM
[46]
  GI50: 0.24 µM
  TGI: > 100 µM
[47]
  GI50: 2.77 µM
  TGI: > 100 µM
[48]
  GI50: 0.0718 µM
  TGI: 0.828 µM
[49]
  GI50: 2.18 µM
  TGI: > 100 µM
[50]
  GI50: 2.21 µM
  TGI: > 100 µM
[51]
  GI50: 0.248 µM
  TGI: > 52.5 µM
[52]
  GI50: 0.204 µM
  TGI: > 100 µM
[53]
  GI50: 0.726 µM
  TGI: > 100 µM
[54]
  GI50: 0.0352 µM
[55]
  GI50: 0.459 µM
  TGI: 8.08 µM
[56]
  GI50: 0.443 µM
  TGI: > 100 µM
